Experimental data: US20250313548A1 (Actio Biosciences, Inc., priority 2023, published 2025)

The compounds below were run against human, KCNT1 (Homo sapiens (Human), UniProt Q5JUK3) (assay: FLIPR Tl/K Flux Assay). Conditions: HEK293 cells stably expressing human KCNT1; Tl+ flux stimulated with EC80 of agonist Loxapine.
Format: cell-based
Procedure: HEK293 cells stably expressing human, KCNT1 were cultured in DMEM, 10% FBS, 100 U/mL penicillin-streptomycin and […] puromycin for selection purposes. One day before the assay, cells were detached using TrypLE™ Express and counted using a cell counter. Only cells with >85% viability were used for the assay. […] The cells were incubated overnight at 37° C., 5% (v/v) CO2.
On the day of the assay, the reagents were prepared following the FLIPR® Potassium Assay Kit manual: prepare 2× dye solution, dilute the dye with assay buffer (20 mM HEPES in 1× HBSS, PH7.4), addition of probenecid to a final concentration of 5 mM, and vortexed vigorously for 1-2 minutes. The cell plate was flicked to remove medium and tapped on paper towels to remove excess media. […] The cell plate was moved to a plate shaker, agitated at 600 rpm for two minutes, and then incubated at 25° C. for one hour.
The compounds were prepared in DMSO and transferred to a 384-well compound plate (PP, low binding), referred to as a source plate. Reference agonist (300 nM) compound and test inhibitor (10 mM) compounds were added to the compound plate and a 4-fold serial dilution was performed in DMSO. Using an ECHO dispenser, compounds were dispensed at 90 nL/well from the source plate to a 384-well compound plate (PP, low binding). After the dispensing was complete, 30 µL/well assay buffer was added to the compound plate and mixed for two minutes on a plate shaker. The cell plate, compound plate, and tips were loaded into the FLIPR instrument, and a transfer of 10 μl of 3× compound to the cell plate was initiated. The treated cell plate was kept at in the dark at 25° C. for 30 minutes. Chloride-free stimulation buffer containing 4× 2 mM Tl+ and 4×EC80 of agonist Loxapine was loaded into a 384-well compound plate (PP, low binding). After the 30-minute incubation, the cell plate, compound plate containing stimulation buffer, and FLIPR tips were loaded into the FLIPR instrument. After a baseline read, the FLIPR initiates a transfer of 10 μL of stimulation buffer containing Loxapine to the cell plate. The plate was read for 160 sec with 1 second interval reads to obtain the data.
The normalized fluorescence reading (RFU) was calculated as shown follow, while Fmax and Fmin stand for maximum and minimum of signal during defined time window. The IC50 was calculated by fitting % inhibition against log of compound concentrations with Hill equation using XLfit.

Sequence of human, KCNT1 (Q5JUK3 whole entry): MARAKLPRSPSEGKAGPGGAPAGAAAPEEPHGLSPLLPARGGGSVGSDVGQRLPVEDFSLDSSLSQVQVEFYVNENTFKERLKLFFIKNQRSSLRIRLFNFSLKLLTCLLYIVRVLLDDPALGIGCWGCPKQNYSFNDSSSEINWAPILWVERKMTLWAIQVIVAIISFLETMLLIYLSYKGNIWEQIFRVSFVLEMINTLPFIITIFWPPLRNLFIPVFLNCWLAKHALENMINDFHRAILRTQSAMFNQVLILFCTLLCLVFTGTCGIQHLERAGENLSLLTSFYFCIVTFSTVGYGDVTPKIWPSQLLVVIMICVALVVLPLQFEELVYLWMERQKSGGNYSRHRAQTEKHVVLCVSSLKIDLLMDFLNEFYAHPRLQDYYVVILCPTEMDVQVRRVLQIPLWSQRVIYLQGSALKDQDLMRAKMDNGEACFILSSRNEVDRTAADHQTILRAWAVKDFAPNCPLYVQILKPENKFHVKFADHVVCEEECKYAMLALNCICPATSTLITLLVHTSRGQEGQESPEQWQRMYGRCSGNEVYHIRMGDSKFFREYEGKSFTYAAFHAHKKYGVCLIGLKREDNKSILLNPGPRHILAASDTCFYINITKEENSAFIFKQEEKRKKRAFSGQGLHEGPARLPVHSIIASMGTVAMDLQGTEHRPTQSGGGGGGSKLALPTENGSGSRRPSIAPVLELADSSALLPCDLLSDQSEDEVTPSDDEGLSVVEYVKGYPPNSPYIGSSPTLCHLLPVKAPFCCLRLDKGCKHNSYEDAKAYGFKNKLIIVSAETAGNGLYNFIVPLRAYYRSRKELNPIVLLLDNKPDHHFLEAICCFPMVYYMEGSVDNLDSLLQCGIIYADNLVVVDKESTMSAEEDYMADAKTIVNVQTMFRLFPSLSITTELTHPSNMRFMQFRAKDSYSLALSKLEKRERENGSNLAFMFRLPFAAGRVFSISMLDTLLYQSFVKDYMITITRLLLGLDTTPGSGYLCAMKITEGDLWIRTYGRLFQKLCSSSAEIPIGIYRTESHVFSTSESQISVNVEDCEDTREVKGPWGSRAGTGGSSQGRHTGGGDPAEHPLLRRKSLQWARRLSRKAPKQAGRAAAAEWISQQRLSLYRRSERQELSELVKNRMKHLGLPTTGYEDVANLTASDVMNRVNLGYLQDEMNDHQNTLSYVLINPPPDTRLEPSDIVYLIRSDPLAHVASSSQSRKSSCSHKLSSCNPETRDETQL

IC50 [nM] | Compound
> 1000 | Cn1nc(C(F)(F)F)cc1C(=O)NC1CCCc2nn(-c3ccc(=O)[nH]c3)cc21 (racemic) [Compound I-33, (rac)-1-Methyl-N-(2-(6-oxo-1,6-dihydropyridin-3-yl)-4,5,6,7-tetrahydro-2H-indazol-4-yl)-3-(trifluoromethyl)-1H-pyrazole-5-carboxamide]
> 1000 | Cn1nc(C(F)(F)F)cc1C(=O)NC1CCCc2nn(-c3ccn4ccnc4c3)cc21 (racemic) [Compound I-34, (rac)-N-(2-(Imidazo[1,2-a]pyridin-7-yl)-4,5,6,7-tetrahydro-2H-indazol-4-yl)-1-methyl-3-(trifluoromethyl)-1H-pyrazole-5-carboxamide]
> 1000 | Cn1nc(C(F)(F)F)cc1C(=O)NC1CCCc2nn(-c3cc[nH]c(=O)c3)cc21 (racemic) [Compound I-35, (rac)-1-Methyl-N-(2-(2-oxo-1,2-dihydropyridin-4-yl)-4,5,6,7-tetrahydro-2H-indazol-4-yl)-3-(trifluoromethyl)-1H-pyrazole-5-carboxamide]
> 1000 | O=C(NC1CCCc2nn(-c3ccnc(C(F)(F)F)c3)cc21)c1ccncc1 (racemic) [Compound I-36, (rac)-N-(2-(2-(Trifluoromethyl)pyridin-4-yl)-4,5,6,7-tetrahydro-2H-indazol-4-yl)isonicotinamide]
> 1000 | Cn1nc(C(F)(F)F)cc1C(=O)NC1CCCc2nn(-c3ccn4nccc4c3)cc21 (racemic) [Compound I-38, (rac)-1-Methyl-N-(2-(pyrazolo[1,5-a]pyridin-5-yl)-4,5,6,7-tetrahydro-2H-indazol-4-yl)-3-(trifluoromethyl)-1H-pyrazole-5-carboxamide]
> 1000 | Cn1nc(C(F)(F)F)cc1C(=O)NC1CCCc2nn(-c3ccc(=O)n(C)c3)cc21 (racemic) [Compound I-39, (rac)-1-Methyl-N-(2-(1-methyl-6-oxo-1,6-dihydropyridin-3-yl)-4,5,6,7-tetrahydro-2H-indazol-4-yl)-3-(trifluoromethyl)-1H-pyrazole-5-carboxamide]
> 1000 | Cn1nc(C(F)(F)F)cc1C(=O)NC1CCCc2nn(-c3ccn(C)c(=O)c3)cc21 (racemic) [Compound I-40, (rac)-1-Methyl-N-(2-(1-methyl-2-oxo-1,2-dihydropyridin-4-yl)-4,5,6,7-tetrahydro-2H-indazol-4-yl)-3-(trifluoromethyl)-1H-pyrazole-5-carboxamide]
< 250 | Cn1nc(C(F)(F)F)cc1C(=O)NC1CCCn2nc(-c3ccnc(C(F)(F)F)c3)cc21 (racemic) [Compound I-42, (rac)-1-Methyl-3-(trifluoromethyl)-N-(2-(2-(trifluoromethyl)pyridin-4-yl)-4,5,6,7-tetrahydropyrazolo[1,5-a]pyridin-4-yl)-1H-pyrazole-5-carboxamide]
< 250 | Cn1nc(C(F)(F)F)cc1C(=O)NC1CCCCc2nn(-c3ccnc(C(F)(F)F)c3)cc21 (racemic) [Compound I-45, (rac)-1-Methyl-3-(trifluoromethyl)-N-(2-(2-(trifluoromethyl)pyridin-4-yl)-2,4,5,6,7,8-hexahydrocyclohepta[c]pyrazol-4-yl)-1H-pyrazole-5-carboxamide]
< 250 | CCOc1cc(-n2cc3c(n2)CCCC3NC(=O)c2cc(C(F)(F)F)nn2CC)ccn1 (racemic) [Compound I-55, (rac)-N-(2-(2-Ethoxypyridin-4-yl)-4,5,6,7-tetrahydro-2H-indazol-4-yl)-1-ethyl-3-(trifluoromethyl)-1H-pyrazole-5-carboxamide]
< 250 | CCOc1cc(-n2cc3c(n2)CCCCC3NC(=O)c2cccc(C)c2)ccn1 (racemic) [Compound I-59, (rac)-N-(2-(2-Ethoxypyridin-4-yl)-2,4,5,6,7,8-hexahydrocyclohepta[c]pyrazol-4-yl)-3-methylbenzamide]
< 250 | CCOc1cc(-n2cc3c(n2)CCCCC3NC(=O)c2cccc(C(F)(F)F)c2)ccn1 (racemic) [Compound I-61, (rac)-N-(2-(2-Ethoxypyridin-4-yl)-2,4,5,6,7,8-hexahydrocyclohepta[c]pyrazol-4-yl)-3-(trifluoromethyl)benzamide]
< 250 | Cn1nc(C(F)(F)F)cc1C(=O)NC1CCc2nn(-c3ccnc(C(F)(F)F)c3)cc2C1 (racemic) [Compound I-63, (rac)-1-Methyl-3-(trifluoromethyl)-N-(2-(2-(trifluoromethyl)pyridin-4-yl)-4,5,6,7-tetrahydro-2H-indazol-5-yl)-1H-pyrazole-5-carboxamide]
< 250 | Cn1nc(C(F)(F)F)cc1C(=O)NC1CCCCn2nc(-c3ccnc(C4CC4)c3)cc21 (single isomer, unassigned) [Compound I-67]
< 250 | O=C(N[C@H]1CCCCc2nn(-c3ccnc(C(F)(F)F)c3)cc21)c1cc(Cl)cc(C(F)(F)F)c1 (single isomer, unassigned) [Compound I-109a]
< 250 | Cc1cc(F)cc(C(=O)N[C@H]2CCc3nn(-c4ccnc(C(F)(F)F)c4)cc32)c1 (single isomer, unassigned) [Compound I-384a]
< 250 | Cn1cc(C(=O)N[C@H]2CCCn3nc(-c4ccnc(C(F)(F)F)c4)cc32)c(C(F)(F)F)c1 (single isomer, unassigned) [Compound I-409a]
> 1000 | COc1cc(-c2cc3n(n2)CCC3NC(=O)c2nc(C(F)(F)F)nn2C)ccn1 (single isomer, unassigned) [Compound I-473]
< 250 | CC(F)(F)c1cc(-c2nc3c(o2)CCCC3NC(=O)c2cc(C(F)(F)F)n(C(F)F)n2)ccn1 (single isomer, unassigned) [Compound I-534]
< 250 | CC(F)(F)c1cc(-c2nc3c(o2)CCCC3NC(=O)c2cn(C(F)(F)F)nc2C(F)F)ccn1 (single isomer, unassigned) [Compound I-535]
< 250 | Cn1nc(C(F)(F)F)cc1C(=O)N[C@H]1CCCc2nc(-c3ccnc(C(F)(F)F)c3)ccc21 (single isomer, unassigned) [I-149*]
> 1000 | O=C(N[C@H]1CCCc2cnc(-c3ccnc(C(F)(F)F)c3)cc21)c1cc2cccnn2c1 (single isomer, unassigned) [I-268*]
> 1000 | COc1cc(C(=O)N[C@H]2CCCc3cnc(-c4ccnc(C(F)(F)F)c4)cc32)ccn1 (single isomer, unassigned) [I-269*]
> 1000 | O=C(N[C@H]1CCCc2cnc(-c3ccnc(C(F)(F)F)c3)cc21)c1cncc(C(F)(F)F)n1 (single isomer, unassigned) [I-270*]
500 to 1000 | Cc1nc(C(F)(F)F)oc1C(=O)N[C@H]1CCCc2cnc(-c3ccnc(C(F)(F)F)c3)cc21 (single isomer, unassigned) [I-271*]
< 250 | Cn1nc(C(F)(F)F)cc1C(=O)N[C@H]1CCCCn2nc(-c3ccnc(C(F)(F)F)c3)nc21 (single isomer, unassigned) [I-272*]
< 250 | N#Cc1cccc(C(=O)NC2CCCn3cc(-c4ccnc(C(F)(F)F)c4)cc32)c1 (single isomer, unassigned) [I-309*]
< 250 | N#Cc1cccc(C(=O)N[C@H]2CCn3cc(-c4ccnc(C(F)(F)F)c4)cc32)c1 (stereo in doubt) [Compound I-276a, 3-Cyano-N-(6-(2-(trifluoromethyl)pyridin-4-yl)-2,3-dihydro-1H-pyrrolizin-1-yl)benzamide]
